Consider ten compounds from patent US5536853A, “Opiate receptor ligands” (Chiron Corporation, priority 1994, dated 1996).

The structures appear in SMILES notation.

In this assay the target is T1, μ-specific opiate receptor (Rattus norvegicus, UniProt P33535).
T1 construct: Rat forebrains were homogenized and washed; from tissue; host or cells: rat forebrain membranes
The assay can be described thus: in vitro solution-phase radioligand competition assay ([3H]-DAMGO, rat forebrain membranes). The format is binding. To be noted: 1 nM [3H]-DAMGO, pH 7.5, 1 hr room temperature; for inhibition at 0.1 µM: at 100 nM. The procedure: Compounds were screened in vitro using the following assay:
High-affinity ligands for the μ-specific opiate receptor were identified from a diverse peptoid library by testing the pools of compounds in solution-phase radioligand competition assays, and tracing the binding activity to individual compounds by iterative resynthesis and screening of smaller sub-pools.
Rat forebrains were homogenized and washed in 50 mM Tris, pH 7.5 containing 20 mM NaCl, 5 mM EGTA, 2 mM MgCl2, 21 μg/mL aprotinin, 0.5 mg/L leupeptin, 0.7 mg/L pepstatin, 0.2 Mm PMSF. 50 μL of membrane (10 mg/mL protein) were dispensed into 1 mL of 50 mM Tris, pH 7.5, 1 nM [^3 H]-DAMGO and the peptoid mixture. All assays were performed at 100 nM per peptoid.
Nonspecific binding was determined as [^3 H]-DAMGO bound in the presence of 1 μM naloxone. Incubation was for 1 hr at room temperature. Unbound radioactivity was removed by rinsing the membranes on Whatman GF/B glass fiber filters. Each filter was washed 3 times with 3 mL of 50 mM Tris, pH 7.5, 4° C. Filters were soaked overnight in 5 mL of Beckman ReadySafe scintillation cocktail and then counted for one minute in a Wallac 1409 liquid scintillation counter. Assays were performed in duplicate.
Background: In a radioligand displacement assay an active substance lowers the binding of a labelled ligand.

T1 sequence (P33535 whole entry): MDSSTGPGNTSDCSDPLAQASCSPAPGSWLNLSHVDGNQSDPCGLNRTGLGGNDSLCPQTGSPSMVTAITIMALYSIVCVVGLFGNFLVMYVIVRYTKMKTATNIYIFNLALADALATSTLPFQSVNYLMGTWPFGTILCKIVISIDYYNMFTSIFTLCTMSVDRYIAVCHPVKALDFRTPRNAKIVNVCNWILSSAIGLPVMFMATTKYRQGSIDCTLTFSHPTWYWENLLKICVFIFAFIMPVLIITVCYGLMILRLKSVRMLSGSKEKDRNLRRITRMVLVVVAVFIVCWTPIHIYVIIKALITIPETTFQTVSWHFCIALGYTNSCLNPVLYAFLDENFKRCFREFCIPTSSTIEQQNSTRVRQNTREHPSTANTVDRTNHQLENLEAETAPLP

One may read the inhibition as the change of the read-out against control, counted positive when it falls. In turn, `NC(=O)CN(CCc1ccc(O)cc1)C(=O)CN(Cc1ccc2c(c1)OCO2)C(=O)CNCCC(c1ccccc1)c1ccccc1` [CHIR 4622, Nbhe-Nmdb-Nhtyr] had an inhibition at 0.1 µM of 78%.

Regarding `COc1cc(CN(CC(=O)N(CCc2ccc(O)cc2)CC(N)=O)C(=O)CNCC(c2ccccc2)c2ccccc2)cc(OC)c1OC` [CHIR 4626, Nbhm-Ntrnb-Nhtyr], the inhibition at 0.1 µM worked out at 86%.

Usually Ki stands for a measure of affinity in units of concentration, obtained from inhibition or displacement. Low values mean tighter binding, high ones weaker binding. In the case of `NC(=O)CN(CCc1ccc(O)cc1)C(=O)CN(Cc1ccc2c(c1)OCO2)C(=O)CNCC(c1ccccc1)c1ccccc1` [CHIR-4531, Nbhm-Nmdb-Nhtyr], the Ki is 7 nM.

Take `CC(NCC(c1ccccc1)c1ccccc1)C(=O)N(CC(=O)N(CCc1ccc(O)cc1)CC(N)=O)Cc1ccc2c(c1)OCO2` (stereo not shown) [CHIR 5052, Nbha-Nmdb-Nhtyr]: 0.1 µM produced 73% inhibition.

`NC(=O)CN(CCc1ccc(O)cc1)C(=O)CN(Cc1ccccc1)C(=O)CNCC(c1ccccc1)c1ccccc1` [CHIR 4627, Nbhm-Nphe-Nhtyr] displayed an inhibition at 0.1 µM of 90%.

In the case of `NC(=O)CN(CCc1ccc(O)cc1)C(=O)CN(Cc1ccc2c(c1)OCO2)C(=O)CNCC=C(c1ccccc1)c1ccccc1` [CHIR 5062, Nbvp-Nmdb-Nhtyr], the inhibition at 0.1 µM came to 65%.

With `NC(=O)CN(CCc1ccccc1)C(=O)CN(Cc1ccccc1)C(=O)CNCC(c1ccccc1)c1ccccc1` [CHIR 4628, Nbhm-Nphe-Nhphe], the inhibition at 0.1 µM stood at 77%.

The compound `NC(=O)CN(CCc1ccc(O)cc1)C(=O)CN(Cc1ccc2c(c1)OCO2)C(=O)C=CCNCC(c1ccccc1)c1ccccc1` [CHIR 5045, Nvbhm-Nmdb-Nhtyr] showed an inhibition at 0.1 µM of 58%.

Turning to `COc1ccc(CN(CC(=O)N(CCc2ccc(O)cc2)CC(N)=O)C(=O)CNCC(c2ccccc2)c2ccccc2)cc1OC` [CHIR-4537, Nbhm-Nddb-Nhtyr], the Ki stood at 45 nM.

Compound `CCCCCN(CC(=O)N(CCc1ccc(O)cc1)CC(N)=O)C(=O)CNCC(c1ccccc1)c1ccccc1` [CHIR-4534, Nbhm-Npen-Nhtyr] displayed a Ki of 30 nM.
